Where two headings read alike, the source gives them in different places.
How the values were obtained:
[1] = tested on: VEGFR and ERK activation; test: VEGF165-stimulated activation of VEGFR and ERK in HUVEC cells; assay type: cell-based, human; details: 50 ng/mL VEGF165, concentration-dependent
[2] = Metabolites in plasma; details: monkeys
[3] = tested on: TT cells; test: Tumor cell proliferation in vitro; assay type: cell-based, human
[4] = tested on: BEL-7402 cells; test: Tumor cell proliferation in vitro; assay type: cell-based; details: BEL-7402
[5] = biological target: EGFR (Homo sapiens, UniProt P00533); test: Tyrosine kinase inhibition; assay type: biochemical
EGFR, sequence (P00533 25-1210): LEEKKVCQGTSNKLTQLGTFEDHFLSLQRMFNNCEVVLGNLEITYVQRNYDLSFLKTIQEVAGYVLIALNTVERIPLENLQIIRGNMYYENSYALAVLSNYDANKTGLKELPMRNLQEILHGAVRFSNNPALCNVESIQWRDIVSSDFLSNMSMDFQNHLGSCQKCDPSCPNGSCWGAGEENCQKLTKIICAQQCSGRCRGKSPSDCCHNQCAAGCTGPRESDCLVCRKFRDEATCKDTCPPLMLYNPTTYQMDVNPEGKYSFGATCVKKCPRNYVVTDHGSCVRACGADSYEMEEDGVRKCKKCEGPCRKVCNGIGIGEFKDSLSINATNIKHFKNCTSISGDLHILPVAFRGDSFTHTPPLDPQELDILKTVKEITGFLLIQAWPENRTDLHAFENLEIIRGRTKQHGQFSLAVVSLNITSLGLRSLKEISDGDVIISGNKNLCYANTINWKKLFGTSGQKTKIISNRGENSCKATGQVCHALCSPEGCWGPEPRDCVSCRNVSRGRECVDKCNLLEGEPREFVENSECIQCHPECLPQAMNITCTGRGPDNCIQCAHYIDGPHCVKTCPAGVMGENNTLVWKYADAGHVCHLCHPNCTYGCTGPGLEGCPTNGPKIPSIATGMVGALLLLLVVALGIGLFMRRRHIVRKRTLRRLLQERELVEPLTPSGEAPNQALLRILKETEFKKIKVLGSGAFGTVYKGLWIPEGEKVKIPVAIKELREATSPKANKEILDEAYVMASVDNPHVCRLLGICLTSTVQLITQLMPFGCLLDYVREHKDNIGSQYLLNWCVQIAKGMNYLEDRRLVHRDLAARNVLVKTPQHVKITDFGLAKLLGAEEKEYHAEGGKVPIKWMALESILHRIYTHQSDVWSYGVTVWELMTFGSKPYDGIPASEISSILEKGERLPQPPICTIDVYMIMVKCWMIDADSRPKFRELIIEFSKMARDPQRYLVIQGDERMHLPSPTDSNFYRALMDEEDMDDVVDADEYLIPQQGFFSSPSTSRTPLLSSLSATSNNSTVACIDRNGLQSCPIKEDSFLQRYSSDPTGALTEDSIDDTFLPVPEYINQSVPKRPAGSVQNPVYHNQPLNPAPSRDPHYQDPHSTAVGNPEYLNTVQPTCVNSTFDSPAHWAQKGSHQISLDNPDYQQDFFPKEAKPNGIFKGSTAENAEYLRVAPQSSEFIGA

[6] = 28-day repeated dose toxicity; assay type: in vivo, Beagle dogs
[7] = biological target: EphA1 (Homo sapiens, UniProt P21709); test: Tyrosine kinase inhibition; assay type: biochemical
EphA1, sequence (P21709 26-976): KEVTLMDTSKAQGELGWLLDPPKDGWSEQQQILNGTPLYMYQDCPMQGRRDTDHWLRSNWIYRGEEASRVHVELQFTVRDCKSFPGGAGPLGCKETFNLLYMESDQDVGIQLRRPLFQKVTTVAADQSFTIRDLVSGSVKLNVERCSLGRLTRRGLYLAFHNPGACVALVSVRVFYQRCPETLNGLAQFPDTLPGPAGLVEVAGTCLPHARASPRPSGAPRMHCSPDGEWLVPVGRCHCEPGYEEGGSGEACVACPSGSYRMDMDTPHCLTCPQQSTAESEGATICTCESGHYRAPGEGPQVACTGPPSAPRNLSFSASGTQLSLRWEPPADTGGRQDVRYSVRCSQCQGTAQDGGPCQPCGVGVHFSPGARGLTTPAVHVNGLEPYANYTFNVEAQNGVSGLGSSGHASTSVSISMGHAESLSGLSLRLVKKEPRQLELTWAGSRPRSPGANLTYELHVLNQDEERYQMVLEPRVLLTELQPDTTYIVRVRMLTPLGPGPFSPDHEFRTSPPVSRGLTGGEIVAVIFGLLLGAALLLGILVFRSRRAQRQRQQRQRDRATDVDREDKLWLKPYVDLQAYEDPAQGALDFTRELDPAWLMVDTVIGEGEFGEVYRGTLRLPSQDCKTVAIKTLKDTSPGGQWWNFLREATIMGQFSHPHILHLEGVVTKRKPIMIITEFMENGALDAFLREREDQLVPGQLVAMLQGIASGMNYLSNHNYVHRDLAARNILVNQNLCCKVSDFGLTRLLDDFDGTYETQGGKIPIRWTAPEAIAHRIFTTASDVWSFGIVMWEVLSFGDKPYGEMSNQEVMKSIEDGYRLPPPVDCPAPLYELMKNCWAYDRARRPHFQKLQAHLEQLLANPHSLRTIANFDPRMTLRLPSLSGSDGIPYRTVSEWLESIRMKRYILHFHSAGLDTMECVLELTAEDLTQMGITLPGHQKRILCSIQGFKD

[8] = biological target: FLT3 (Homo sapiens, UniProt P36888); test: Tyrosine kinase inhibition; assay type: biochemical
FLT3, sequence (P36888 27-993): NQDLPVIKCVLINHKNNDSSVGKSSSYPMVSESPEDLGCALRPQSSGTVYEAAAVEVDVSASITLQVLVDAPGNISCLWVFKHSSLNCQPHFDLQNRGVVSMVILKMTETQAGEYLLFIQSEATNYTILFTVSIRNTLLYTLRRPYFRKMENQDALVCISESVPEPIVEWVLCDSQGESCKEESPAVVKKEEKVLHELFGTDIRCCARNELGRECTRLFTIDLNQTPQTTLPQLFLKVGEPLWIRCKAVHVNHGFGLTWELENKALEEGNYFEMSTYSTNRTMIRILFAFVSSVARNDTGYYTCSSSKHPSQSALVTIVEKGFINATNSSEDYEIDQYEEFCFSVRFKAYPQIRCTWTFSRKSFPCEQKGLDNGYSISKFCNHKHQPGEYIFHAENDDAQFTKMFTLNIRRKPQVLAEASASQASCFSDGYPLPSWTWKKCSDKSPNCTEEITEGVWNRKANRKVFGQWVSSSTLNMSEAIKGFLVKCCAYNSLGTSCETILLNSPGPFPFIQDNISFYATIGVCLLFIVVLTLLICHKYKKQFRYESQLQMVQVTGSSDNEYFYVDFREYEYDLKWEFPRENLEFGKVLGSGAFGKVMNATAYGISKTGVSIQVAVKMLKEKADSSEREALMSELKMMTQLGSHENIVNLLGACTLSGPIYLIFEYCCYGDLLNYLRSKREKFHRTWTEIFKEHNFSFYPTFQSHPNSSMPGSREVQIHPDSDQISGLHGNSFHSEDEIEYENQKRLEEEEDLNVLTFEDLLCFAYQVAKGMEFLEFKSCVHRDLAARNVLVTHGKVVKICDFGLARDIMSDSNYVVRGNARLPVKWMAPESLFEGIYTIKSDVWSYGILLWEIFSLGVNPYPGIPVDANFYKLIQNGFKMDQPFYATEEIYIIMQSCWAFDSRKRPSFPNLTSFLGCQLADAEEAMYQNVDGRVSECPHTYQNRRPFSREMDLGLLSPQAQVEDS

[9] = Plasma protein binding; assay type: in vitro ADME; details: mice
[10] = Phase 1 clinical pharmacokinetics in plasma; assay type: in vivo, human; details: for AUC0-24, Mean (CV%) / AUC0-t, Mean (CV%) / CLz/F, Mean (CV%) / Cmax, Mean (CV%) / Tmax, median [Min-Max] / Vz/F, Mean (CV%) / t1/2z, Mean (CV%): Single dose; for AUC0-24,ss, Mean (CV%) / Cmax,ss, Mean (CV%) / Tmax,ss, median [Min-Max]: Steady State
[11] = biological target: RET (Homo sapiens, UniProt P07949); test: Tyrosine kinase inhibition; assay type: biochemical
RET, sequence (P07949 29-1114): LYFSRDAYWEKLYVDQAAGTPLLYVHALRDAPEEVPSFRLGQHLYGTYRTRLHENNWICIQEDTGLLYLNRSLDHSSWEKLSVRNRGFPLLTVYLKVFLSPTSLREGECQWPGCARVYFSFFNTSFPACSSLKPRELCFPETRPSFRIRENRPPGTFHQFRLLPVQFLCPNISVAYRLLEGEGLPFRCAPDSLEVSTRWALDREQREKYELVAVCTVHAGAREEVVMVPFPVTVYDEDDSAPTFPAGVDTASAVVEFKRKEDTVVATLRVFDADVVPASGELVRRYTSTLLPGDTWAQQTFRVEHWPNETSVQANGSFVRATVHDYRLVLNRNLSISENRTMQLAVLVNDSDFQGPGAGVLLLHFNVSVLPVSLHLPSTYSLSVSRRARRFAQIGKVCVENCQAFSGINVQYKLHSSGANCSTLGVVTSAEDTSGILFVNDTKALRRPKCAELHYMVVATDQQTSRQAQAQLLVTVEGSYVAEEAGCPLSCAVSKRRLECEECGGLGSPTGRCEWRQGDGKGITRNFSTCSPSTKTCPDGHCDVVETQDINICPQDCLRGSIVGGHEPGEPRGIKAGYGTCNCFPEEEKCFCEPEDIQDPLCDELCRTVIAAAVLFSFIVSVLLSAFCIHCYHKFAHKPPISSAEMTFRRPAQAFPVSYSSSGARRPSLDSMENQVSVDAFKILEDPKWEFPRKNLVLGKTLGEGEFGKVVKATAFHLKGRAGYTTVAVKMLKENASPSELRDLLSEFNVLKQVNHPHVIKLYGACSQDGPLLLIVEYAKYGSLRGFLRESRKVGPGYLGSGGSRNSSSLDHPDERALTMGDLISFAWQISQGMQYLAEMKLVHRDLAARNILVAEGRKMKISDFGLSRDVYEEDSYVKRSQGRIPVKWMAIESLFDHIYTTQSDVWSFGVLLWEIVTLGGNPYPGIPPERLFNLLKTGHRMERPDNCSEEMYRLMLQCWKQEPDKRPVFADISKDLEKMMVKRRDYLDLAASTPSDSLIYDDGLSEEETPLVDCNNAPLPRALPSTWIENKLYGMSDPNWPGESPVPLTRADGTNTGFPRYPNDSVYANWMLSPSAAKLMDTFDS

[12] = Safety pharmacology: respiratory function and neurological behavior; assay type: in vivo, rats; details: single oral dose 30, 100, and 300 mg/kg

COc1cc2c(Nc3ccc(Br)cc3F)ncnc2cc1OCCCCN(C)C.Cl.Cl [HA121-28, N-(4-bromo-2-fluorophenyl)-7-(4-(dimethylamino)butoxy)-6-methoxy quinazolin-4-amine dihydrochloride]
activation of VEGFR and downstream ERK [1]: significantly inhibited
number of metabolites found in plasma [2]: 4
IC50 [3]: 3.83 ± 0.0915 µM
IC50 ([4]; read-out: IC50): 10 to 100 µM
IC50 ([4]; read-out: IC50, proliferation): 9.91 ± 0.202 µM
IC50 [5]: 0.0466 µM
no observed adverse effect level (NOAEL) ([6]; 28 d, Beagle dog): 12 mg/kg
highest non-severely toxic dose (HNSTD) ([6]; oral, four consecutive weeks): 12 mg/kg
IC50 [7]: 0.0869 µM
IC50 [8]: 0.556 µM
plasma protein binding rate [9]: 97.2±0.266%
AUC0-24, Mean (CV%) ([10]; 25 mg (N=1)): 237.1 (-) h*ng/mL
AUC0-t, Mean (CV%) ([10]; 25 mg (N=1)): 906.8 (-) h*ng/mL
CLz/F, Mean (CV%) ([10]; 25 mg (N=1)): 18.5 (-) L/h
Cmax, Mean (CV%) ([10]; 25 mg (N=1)): 15.6 (-) ng/mL
Tmax, median [Min-Max] ([10]; 25 mg (N=1)): 4 [4,4] h
Vz/F, Mean (CV%) ([10]; 25 mg (N=1)): 2971.7 (-) L
t1/2z, Mean (CV%) ([10]; 25 mg (N=1)): 111.2 (-) h
AUC0-24, Mean (CV%) ([10]; 50 mg (N=1)): 283.0 (-) h*ng/mL
AUC0-t, Mean (CV%) ([10]; 50 mg (N=1)): 1645.1 (-) h*ng/mL
CLz/F, Mean (CV%) ([10]; 50 mg (N=1)): 19.5 (-) L/h
Cmax, Mean (CV%) ([10]; 50 mg (N=1)): 15.6 (-) ng/mL
Tmax, median [Min-Max] ([10]; 50 mg (N=1)): 24 [24,24] h
Vz/F, Mean (CV%) ([10]; 50 mg (N=1)): 3137.7 (-) L
t1/2z, Mean (CV%) ([10]; 50 mg (N=1)): 111.6 (-) h
AUC0-24, Mean (CV%) ([10]; 100 mg (N=4)): 725.9 (306.5) h*ng/mL
AUC0-t, Mean (CV%) ([10]; 100 mg (N=4)): 3460.0 (1126.6) h*ng/mL
CLz/F, Mean (CV%) ([10]; 100 mg (N=4)): 18.8 (4.8) L/h
Cmax, Mean (CV%) ([10]; 100 mg (N=4)): 46.4 (27.0) ng/mL
Tmax, median [Min-Max] ([10]; 100 mg (N=4)): 6 [4-24] h
Vz/F, Mean (CV%) ([10]; 100 mg (N=4)): 2303.3 (37.5) L
t1/2z, Mean (CV%) ([10]; 100 mg (N=4)): 89.1 (23.8) h
AUC0-24, Mean (CV%) ([10]; 200 mg (N=4)): 1884.6 (514.6) h*ng/mL
AUC0-t, Mean (CV%) ([10]; 200 mg (N=4)): 7763.0 (2539.2) h*ng/mL
CLz/F, Mean (CV%) ([10]; 200 mg (N=4)): 21.6 (7.0) L/h
Cmax, Mean (CV%) ([10]; 200 mg (N=4)): 115.5 (32.7) ng/mL
Tmax, median [Min-Max] ([10]; 200 mg (N=4)): 8 [8-10] h
Vz/F, Mean (CV%) ([10]; 200 mg (N=4)): 2627.1 (1416.0) L
t1/2z, Mean (CV%) ([10]; 200 mg (N=4)): 80.7 (15.3) h
AUC0-24, Mean (CV%) ([10]; 300 mg (N=4)): 3037.9 (854.0) h*ng/mL
AUC0-t, Mean (CV%) ([10]; 300 mg (N=4)): 11276.6 (2463.8) h*ng/mL
CLz/F, Mean (CV%) ([10]; 300 mg (N=4)): 19.1 (3.8) L/h
Cmax, Mean (CV%) ([10]; 300 mg (N=4)): 193.0 (70.1) ng/mL
Tmax, median [Min-Max] ([10]; 300 mg (N=4)): 8 [2-8] h
Vz/F, Mean (CV%) ([10]; 300 mg (N=4)): 2307.1 (724.2) L
t1/2z, Mean (CV%) ([10]; 300 mg (N=4)): 83.1 (16.6) h
AUC0-24, Mean (CV%) ([10]; 450 mg (N=7)): 6271.3 (2275.9) h*ng/mL
AUC0-t, Mean (CV%) ([10]; 450 mg (N=7)): 20218.4 (7301.9) h*ng/mL
CLz/F, Mean (CV%) ([10]; 450 mg (N=7)): 16.2 (6.6) L/h
Cmax, Mean (CV%) ([10]; 450 mg (N=7)): 374.7 (140.6) ng/mL
Tmax, median [Min-Max] ([10]; 450 mg (N=7)): 8 [4-8] h
Vz/F, Mean (CV%) ([10]; 450 mg (N=7)): 2009.5 (706.2) L
t1/2z, Mean (CV%) ([10]; 450 mg (N=7)): 87.6 (11.7) h
AUC0-24, Mean (CV%) ([10]; 600 mg (N=5)): 8403.6 (4593.9) h*ng/mL
AUC0-t, Mean (CV%) ([10]; 600 mg (N=5)): 26818.4 (14650.1) h*ng/mL
CLz/F, Mean (CV%) ([10]; 600 mg (N=5)): 19.7 (8.1) L/h
Cmax, Mean (CV%) ([10]; 600 mg (N=5)): 500.0 (224.3) ng/mL
Tmax, median [Min-Max] ([10]; 600 mg (N=5)): 8 [4-8] h
Vz/F, Mean (CV%) ([10]; 600 mg (N=5)): 2163.4 (719.0) L
t1/2z, Mean (CV%) ([10]; 600 mg (N=5)): 80.8 (19.4) h
AUC0-24, Mean (CV%) ([10]; 800 mg (N=3)): 9721.8 (2598.4) h*ng/mL
AUC0-t, Mean (CV%) ([10]; 800 mg (N=3)): 33030.6 (10820.6) h*ng/mL
CLz/F, Mean (CV%) ([10]; 800 mg (N=3)): 19.9 (9.2) L/h
Cmax, Mean (CV%) ([10]; 800 mg (N=3)): 610.0 (200.1) ng/mL
Tmax, median [Min-Max] ([10]; 800 mg (N=3)): 8 [4-8] h
Vz/F, Mean (CV%) ([10]; 800 mg (N=3)): 2001.6 (613.2) L
t1/2z, Mean (CV%) ([10]; 800 mg (N=3)): 74.1 (24.6) h
AUC0-24,ss, Mean (CV%) ([10]; 25 mg (N=1)): 1629.1 (-) h*ng/mL
Cmax,ss, Mean (CV%) ([10]; 25 mg (N=1)): 77.2 (-) ng/mL
Tmax,ss, median [Min-Max] ([10]; 25 mg (N=1)): 2 [2,2] h
AUC0-24,ss, Mean (CV%) ([10]; 50 mg (N=1)): 2728.6 (-) h*ng/mL
Cmax,ss, Mean (CV%) ([10]; 50 mg (N=1)): 122.0 (-) ng/mL
Tmax,ss, median [Min-Max] ([10]; 50 mg (N=1)): 4 [4,4] h
AUC0-24,ss, Mean (CV%) ([10]; 100 mg (N=4)): 4785.0 (1808.2) h*ng/mL
Cmax,ss, Mean (CV%) ([10]; 100 mg (N=4)): 219.0 (75.2) ng/mL
Tmax,ss, median [Min-Max] ([10]; 100 mg (N=4)): 8 [4-8] h
AUC0-24,ss, Mean (CV%) ([10]; 200 mg (N=4)): 11332.7 (4944.0) h*ng/mL
Cmax,ss, Mean (CV%) ([10]; 200 mg (N=4)): 550.0 (229.2) ng/mL
Tmax,ss, median [Min-Max] ([10]; 200 mg (N=4)): 8 [8-8] h
AUC0-24,ss, Mean (CV%) ([10]; 300 mg (N=4)): 12969.9 (1048.1) h*ng/mL
Cmax,ss, Mean (CV%) ([10]; 300 mg (N=4)): 635.3 (30.1) ng/mL
Tmax,ss, median [Min-Max] ([10]; 300 mg (N=4)): 4 [4-4] h
AUC0-24,ss, Mean (CV%) ([10]; 450 mg (N=7)): 18460.0 (3291.4) h*ng/mL
Cmax,ss, Mean (CV%) ([10]; 450 mg (N=7)): 945.8 (189.0) ng/mL
Tmax,ss, median [Min-Max] ([10]; 450 mg (N=7)): 6 [4-8] h
AUC0-24,ss, Mean (CV%) ([10]; 600 mg (N=5)): 27965.4 (13872.8) h*ng/mL
Cmax,ss, Mean (CV%) ([10]; 600 mg (N=5)): 1453.0 (825.0) ng/mL
Tmax,ss, median [Min-Max] ([10]; 600 mg (N=5)): 4 [4-8] h
AUC0-24,ss, Mean (CV%) ([10]; 800 mg (N=3)): 23180.1 (3336.5) h*ng/mL
Cmax,ss, Mean (CV%) ([10]; 800 mg (N=3)): 1067.0 (216.4) ng/mL
Tmax,ss, median [Min-Max] ([10]; 800 mg (N=3)): 6 [4-8] h
time to steady state ([10]; multiple dosing): two
IC50 [11]: 0.00872 µM
respiratory function and neurological behavior [12]: did not affect

— PMC11868595, “Safety, pharmacokinetics and efficacy of HA121-28 in patients with advanced solid tumors and RET fusion-positive non-small-cell lung cancer: a multicenter, open-label, single-arm phase 1/2 trial” (Signal Transduction and Targeted Therapy, 2025)
